Common to all, as to experiment: relative viability (nuclei count vs DMSO), 5 days (fraction); higher = more cells survive
Compound in the assay “GW-2580 + Foretinib”: COC1=CC=C(C=C1)COC2=C(C=C(C=C2)CC3=CN=C(N=C3N)N)OC [GW-2580] + COc1cc2c(Oc3ccc(NC(=O)C4(C(=O)Nc5ccc(F)cc5)CC4)cc3F)ccnc2cc1OCCCN1CCOCC1 [Foretinib] (partner 0.25 µM)
In outline: (§1)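 For relative viability, nuclei counts in treated wells were divided by those in vehicle wells. Lung cancer cell lines had been pin-tool dosed in 1536-well plates the day after seeding and cultured for 5 days, then fixed and stained in one step (final 0.05% Triton X-100, 1% formaldehyde, 1 ug/ml Hoechst) and imaged at 4×. Doses were one drug alone or a fixed anchor-drug dose plus five library-drug doses (not always all listed) in √10 steps, and values are duplicate-plate medians.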

Compound in the assay “Fedratinib + Palbociclib”: Cc1cnc(Nc2ccc(OCCN3CCCC3)cc2)nc1Nc1cccc(S(=O)(=O)NC(C)(C)C)c1 [Fedratinib] + CC(=O)c1c(C)c2cnc(Nc3ccc(N4CCNCC4)cn3)nc2n(C2CCCC2)c1=O [Palbociclib] (partner 0.5 µM)
The gist of the method: as §1

Compound in the assay “Fedratinib + Olaparib”: Cc1cnc(Nc2ccc(OCCN3CCCC3)cc2)nc1Nc1cccc(S(=O)(=O)NC(C)(C)C)c1 [Fedratinib] + O=C(c1cc(Cc2n[nH]c(=O)c3ccccc23)ccc1F)N1CCN(C(=O)C2CC2)CC1 [Olaparib] (partner 8 µM)
The gist of the method: as §1

Compound in the assay “Fedratinib + Trametinib”: Cc1cnc(Nc2ccc(OCCN3CCCC3)cc2)nc1Nc1cccc(S(=O)(=O)NC(C)(C)C)c1 [Fedratinib] + CC(=O)Nc1cccc(-n2c(=O)n(C3CC3)c(=O)c3c(Nc4ccc(I)cc4F)n(C)c(=O)c(C)c32)c1 [Trametinib] (partner 0.02 µM)
The gist of the method:
as §1

Compound in the assay “Fedratinib + Pictilisib”: Cc1cnc(Nc2ccc(OCCN3CCCC3)cc2)nc1Nc1cccc(S(=O)(=O)NC(C)(C)C)c1 [Fedratinib] + CS(=O)(=O)N1CCN(Cc2cc3nc(-c4cccc5[nH]ncc45)nc(N4CCOCC4)c3s2)CC1 [Pictilisib] (partner 1 µM)
In outline: as §1

Compound in the assay “GW-2580 + Palbociclib”: COC1=CC=C(C=C1)COC2=C(C=C(C=C2)CC3=CN=C(N=C3N)N)OC [GW-2580] + CC(=O)c1c(C)c2cnc(Nc3ccc(N4CCNCC4)cn3)nc2n(C2CCCC2)c1=O [Palbociclib] (partner 0.5 µM)
The gist of the method:
as §1

NCI-H1755: the relative viability with GW-2580 + Foretinib (first compound 0.08 µM) was 1.02; in the assay with GW-2580 + Foretinib (first compound 0.8 µM), 0.967; with GW-2580 + Foretinib (first compound 2.53 µM), 0.907; with GW-2580 + Foretinib (first compound 8 µM) it was 0.679; in the assay with Fedratinib + Palbociclib (first compound 0.1 µM) it was 0.438; with Fedratinib + Palbociclib (first compound 0.3162 µM), 0.462. Also, the relative viability came out at 0.413 in the assay with Fedratinib + Palbociclib (first compound 1 µM); 0.898 in the assay with Fedratinib + Olaparib (first compound 0.1 µM); 0.861 with Fedratinib + Olaparib (first compound 0.3162 µM); 0.855 in the assay with Fedratinib + Olaparib (first compound 1 µM); 0.822 with Fedratinib + Trametinib (first compound 0.1 µM); 0.696 with Fedratinib + Trametinib (first compound 0.3162 µM). The relative viability with Fedratinib + Trametinib (first compound 1 µM) was 0.73; in the assay with Fedratinib + Pictilisib (first compound 0.1 µM) it was 0.385; in the assay with Fedratinib + Pictilisib (first compound 0.3162 µM), 0.458; in the assay with Fedratinib + Pictilisib (first compound 1 µM), 0.399; in the assay with GW-2580 + Palbociclib (first compound 0.08 µM) it was 0.458; in the assay with GW-2580 + Palbociclib (first compound 0.8 µM), 0.422. In addition, the values for the relative viability with GW-2580 + Palbociclib (first compound 2.53 µM) and in the assay with GW-2580 + Palbociclib (first compound 8 µM) were 0.455 and 0.41, respectively.

On to NCI-H1793, for which the relative viability in the assay with GW-2580 + Foretinib (first compound 0.08 µM) amounted to 0.694; with GW-2580 + Foretinib (first compound 0.8 µM), 0.758; in the assay with GW-2580 + Foretinib (first compound 2.53 µM), 0.584; with GW-2580 + Foretinib (first compound 8 µM), 0.58; in the assay with Fedratinib + Palbociclib (first compound 0.1 µM), 0.316; in the assay with Fedratinib + Palbociclib (first compound 0.3162 µM), 0.319. The relative viability in the assay with Fedratinib + Palbociclib (first compound 1 µM) amounted to 0.313; with Fedratinib + Olaparib (first compound 0.1 µM), 0.998; in the assay with Fedratinib + Olaparib (first compound 0.3162 µM) it was 0.941; with Fedratinib + Olaparib (first compound 1 µM), 0.775; with Fedratinib + Trametinib (first compound 0.1 µM) it was 0.493; in the assay with Fedratinib + Trametinib (first compound 0.3162 µM) it was 0.399. Moreover, the relative viability with Fedratinib + Trametinib (first compound 1 µM) turned out to be 0.416; in the assay with Fedratinib + Pictilisib (first compound 0.1 µM), 0.34; with Fedratinib + Pictilisib (first compound 0.3162 µM), 0.305; with Fedratinib + Pictilisib (first compound 1 µM) it was 0.306; with GW-2580 + Palbociclib (first compound 0.08 µM), 0.412; with GW-2580 + Palbociclib (first compound 0.8 µM) it was 0.345. In addition, the relative viability came to 0.28 in the assay with GW-2580 + Palbociclib (first compound 2.53 µM) and 0.273 with GW-2580 + Palbociclib (first compound 8 µM).

With NCI-H1915, the relative viability is 1.26 with GW-2580 + Foretinib (first compound 0.08 µM); 0.768 with GW-2580 + Foretinib (first compound 0.8 µM); 1.12 with GW-2580 + Foretinib (first compound 2.53 µM); 1.06 with GW-2580 + Foretinib (first compound 8 µM); 0.505 in the assay with Fedratinib + Palbociclib (first compound 0.1 µM); 0.498 with Fedratinib + Palbociclib (first compound 0.3162 µM). Besides, the relative viability with Fedratinib + Palbociclib (first compound 1 µM) was determined as 0.422; with Fedratinib + Olaparib (first compound 0.1 µM) it was 0.262; in the assay with Fedratinib + Olaparib (first compound 0.3162 µM), 0.227; with Fedratinib + Olaparib (first compound 1 µM), 0.222; with Fedratinib + Trametinib (first compound 0.1 µM) it was 0.307; in the assay with Fedratinib + Trametinib (first compound 0.3162 µM), 0.28. The relative viability amounted to 0.275 with Fedratinib + Trametinib (first compound 1 µM); 0.927 with Fedratinib + Pictilisib (first compound 0.1 µM); 0.9 in the assay with Fedratinib + Pictilisib (first compound 0.3162 µM); 0.405 with Fedratinib + Pictilisib (first compound 1 µM); 0.608 with GW-2580 + Palbociclib (first compound 0.08 µM); 0.735 in the assay with GW-2580 + Palbociclib (first compound 0.8 µM). Besides, the relative viability was found to be 0.597 with GW-2580 + Palbociclib (first compound 2.53 µM) and 0.492 with GW-2580 + Palbociclib (first compound 8 µM).

For NCI-H1944, the relative viability with GW-2580 + Foretinib (first compound 0.08 µM) was 0.945; in the assay with GW-2580 + Foretinib (first compound 0.8 µM), 0.886; in the assay with GW-2580 + Foretinib (first compound 2.53 µM), 0.966; with GW-2580 + Foretinib (first compound 8 µM), 0.631; with Fedratinib + Palbociclib (first compound 0.1 µM), 0.305; with Fedratinib + Palbociclib (first compound 0.3162 µM) it was 0.358. Further, the relative viability in the assay with Fedratinib + Palbociclib (first compound 1 µM) came out at 0.318; in the assay with Fedratinib + Olaparib (first compound 0.1 µM), 0.407; with Fedratinib + Olaparib (first compound 0.3162 µM), 0.383; with Fedratinib + Olaparib (first compound 1 µM) it was 0.408; in the assay with Fedratinib + Trametinib (first compound 0.1 µM) it was 0.448; with Fedratinib + Trametinib (first compound 0.3162 µM), 0.422. Besides, the relative viability is 0.42 with Fedratinib + Trametinib (first compound 1 µM); 0.333 in the assay with Fedratinib + Pictilisib (first compound 0.1 µM); 0.344 with Fedratinib + Pictilisib (first compound 0.3162 µM); 0.302 with Fedratinib + Pictilisib (first compound 1 µM); 0.33 with GW-2580 + Palbociclib (first compound 0.08 µM); 0.387 with GW-2580 + Palbociclib (first compound 0.8 µM). Also, the relative viability with GW-2580 + Palbociclib (first compound 2.53 µM) worked out at 0.29; with GW-2580 + Palbociclib (first compound 8 µM), 0.255.

The values above are taken from the supplement of paper PMC10307832.
